Active and inactive are the calls of the source.
Legend:
Hexokinase HKDC1 [1] = molecular target: T1, Hexokinase HKDC1 (Homo sapiens, UniProt Q2TB90); assay: analog inhibition of human HKDC1 activity – biochemical, set 2, SAR follow-up (AID 588355); format: functional
T1 sequence (Q2TB90 whole entry): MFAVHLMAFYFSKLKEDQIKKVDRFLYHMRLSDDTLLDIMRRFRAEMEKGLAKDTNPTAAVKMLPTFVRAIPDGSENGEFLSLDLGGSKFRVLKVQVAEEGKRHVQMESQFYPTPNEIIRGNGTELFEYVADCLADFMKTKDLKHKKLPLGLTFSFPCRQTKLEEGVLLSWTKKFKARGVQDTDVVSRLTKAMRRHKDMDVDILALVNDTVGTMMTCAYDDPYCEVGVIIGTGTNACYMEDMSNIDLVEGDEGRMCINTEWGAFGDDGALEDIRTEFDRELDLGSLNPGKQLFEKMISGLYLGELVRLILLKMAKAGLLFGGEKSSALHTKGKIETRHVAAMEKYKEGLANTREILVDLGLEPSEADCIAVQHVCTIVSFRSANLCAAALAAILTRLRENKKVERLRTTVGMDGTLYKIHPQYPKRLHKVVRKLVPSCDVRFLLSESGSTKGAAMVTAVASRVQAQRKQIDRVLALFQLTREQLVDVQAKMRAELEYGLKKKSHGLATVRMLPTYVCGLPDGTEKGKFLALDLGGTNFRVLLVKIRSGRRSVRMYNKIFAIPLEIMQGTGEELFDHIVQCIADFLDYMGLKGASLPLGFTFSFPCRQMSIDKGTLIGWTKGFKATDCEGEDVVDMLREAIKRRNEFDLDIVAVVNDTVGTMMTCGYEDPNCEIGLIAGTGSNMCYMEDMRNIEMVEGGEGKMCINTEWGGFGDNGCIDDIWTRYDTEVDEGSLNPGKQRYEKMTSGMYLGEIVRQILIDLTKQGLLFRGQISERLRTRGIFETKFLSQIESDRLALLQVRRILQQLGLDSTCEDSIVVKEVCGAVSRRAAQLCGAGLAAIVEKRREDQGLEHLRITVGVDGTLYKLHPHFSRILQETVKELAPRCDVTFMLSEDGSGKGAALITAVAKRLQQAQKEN

[2] = molecular target: T2, Replicative DNA helicase DnaB (Mycobacterium tuberculosis, UniProt P9WMR3); assay: DnaB intein splicing inhibitors, dose response, biochemical, cell-free fluorescence (AID 449749); format: functional
T2 sequence (P9WMR3 whole entry): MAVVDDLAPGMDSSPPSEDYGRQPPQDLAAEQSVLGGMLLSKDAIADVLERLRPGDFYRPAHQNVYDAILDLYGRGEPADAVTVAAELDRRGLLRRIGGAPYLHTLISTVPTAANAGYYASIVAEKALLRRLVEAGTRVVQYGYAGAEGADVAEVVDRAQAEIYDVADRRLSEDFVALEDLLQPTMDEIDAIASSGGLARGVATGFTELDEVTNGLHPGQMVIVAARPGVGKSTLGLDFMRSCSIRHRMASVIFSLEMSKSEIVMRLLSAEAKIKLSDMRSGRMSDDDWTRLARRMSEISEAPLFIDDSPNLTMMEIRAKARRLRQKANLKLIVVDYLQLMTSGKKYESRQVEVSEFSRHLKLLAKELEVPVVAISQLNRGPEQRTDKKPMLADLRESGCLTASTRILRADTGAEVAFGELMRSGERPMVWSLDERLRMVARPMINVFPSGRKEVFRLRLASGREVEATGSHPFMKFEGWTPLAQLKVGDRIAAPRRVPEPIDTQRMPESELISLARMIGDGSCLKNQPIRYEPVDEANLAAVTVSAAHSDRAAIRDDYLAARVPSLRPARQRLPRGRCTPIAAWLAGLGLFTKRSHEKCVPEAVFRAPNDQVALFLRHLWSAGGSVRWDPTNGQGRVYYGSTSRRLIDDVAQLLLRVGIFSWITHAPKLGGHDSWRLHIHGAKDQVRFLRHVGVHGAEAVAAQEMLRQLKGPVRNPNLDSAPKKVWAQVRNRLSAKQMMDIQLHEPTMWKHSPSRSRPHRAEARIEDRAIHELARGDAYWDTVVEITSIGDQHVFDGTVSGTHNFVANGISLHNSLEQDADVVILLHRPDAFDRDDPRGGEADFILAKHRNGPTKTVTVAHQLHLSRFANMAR

[3] = molecular target: Cystic fibrosis transmembrane conductance regulator/Golgi-associated PDZ and coiled-coil motif-containing protein (Homo sapiens, UniProt P13569+Q9HD26); assay: potency against CAL PDZ-peptide interaction – biochemical, fluorescence polarization, Cerulean-tagged CAL PDZ, cherry-picks, dose response (AID 504773)
Chain of Cystic fibrosis transmembrane conductance regulator/Golgi-associated PDZ and coiled-coil motif-containing protein (P13569 whole entry, other chains not shown): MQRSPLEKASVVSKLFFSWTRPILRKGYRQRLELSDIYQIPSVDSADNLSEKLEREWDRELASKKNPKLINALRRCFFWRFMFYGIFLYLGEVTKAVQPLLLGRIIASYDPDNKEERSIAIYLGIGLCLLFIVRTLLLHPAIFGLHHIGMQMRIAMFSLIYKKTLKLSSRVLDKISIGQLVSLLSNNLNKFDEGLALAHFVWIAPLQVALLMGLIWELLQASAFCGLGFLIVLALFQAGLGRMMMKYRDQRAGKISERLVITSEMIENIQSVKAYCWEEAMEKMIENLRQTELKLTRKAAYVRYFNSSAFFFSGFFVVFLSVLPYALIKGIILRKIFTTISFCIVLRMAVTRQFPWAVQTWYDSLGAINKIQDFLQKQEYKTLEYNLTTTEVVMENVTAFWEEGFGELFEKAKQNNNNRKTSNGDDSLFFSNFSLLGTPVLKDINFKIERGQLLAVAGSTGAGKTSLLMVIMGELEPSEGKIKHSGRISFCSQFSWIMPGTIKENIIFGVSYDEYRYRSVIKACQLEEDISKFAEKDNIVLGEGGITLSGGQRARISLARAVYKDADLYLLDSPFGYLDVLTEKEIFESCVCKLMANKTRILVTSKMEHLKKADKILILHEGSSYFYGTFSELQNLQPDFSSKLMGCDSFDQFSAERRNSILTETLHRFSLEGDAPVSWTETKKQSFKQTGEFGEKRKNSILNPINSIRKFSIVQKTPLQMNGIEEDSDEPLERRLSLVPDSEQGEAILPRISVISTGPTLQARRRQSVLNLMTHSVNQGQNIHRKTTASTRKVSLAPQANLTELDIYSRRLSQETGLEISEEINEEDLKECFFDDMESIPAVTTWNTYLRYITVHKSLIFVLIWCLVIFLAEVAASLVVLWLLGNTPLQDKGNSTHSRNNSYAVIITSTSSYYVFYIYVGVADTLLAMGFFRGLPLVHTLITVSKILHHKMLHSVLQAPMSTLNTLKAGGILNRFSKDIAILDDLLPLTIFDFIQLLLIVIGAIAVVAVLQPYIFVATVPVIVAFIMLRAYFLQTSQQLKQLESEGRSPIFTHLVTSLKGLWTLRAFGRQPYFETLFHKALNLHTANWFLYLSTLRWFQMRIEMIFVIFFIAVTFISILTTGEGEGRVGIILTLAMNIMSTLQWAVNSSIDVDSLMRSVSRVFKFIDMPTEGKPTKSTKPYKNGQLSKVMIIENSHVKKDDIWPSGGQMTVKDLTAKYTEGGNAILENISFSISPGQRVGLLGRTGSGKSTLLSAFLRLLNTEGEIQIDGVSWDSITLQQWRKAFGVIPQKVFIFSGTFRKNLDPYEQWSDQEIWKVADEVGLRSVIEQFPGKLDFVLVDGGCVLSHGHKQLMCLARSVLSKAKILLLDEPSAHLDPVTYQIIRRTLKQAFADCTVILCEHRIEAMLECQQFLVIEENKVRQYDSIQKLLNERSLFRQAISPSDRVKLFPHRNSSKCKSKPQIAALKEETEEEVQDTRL

Protein RecA = molecular target: T3, Protein RecA (Mycobacterium tuberculosis, UniProt P9WHJ3); assay: Fluorescence Cell-Free Homogeneous Dose Retest to Identify Inhibitors of RecA-Intein Splicing Activity. [Related pubchem assays (depositor defined):AID2097, AID2223, AID489010, AID492950]; format: functional
T3 sequence (P9WHJ3 whole entry): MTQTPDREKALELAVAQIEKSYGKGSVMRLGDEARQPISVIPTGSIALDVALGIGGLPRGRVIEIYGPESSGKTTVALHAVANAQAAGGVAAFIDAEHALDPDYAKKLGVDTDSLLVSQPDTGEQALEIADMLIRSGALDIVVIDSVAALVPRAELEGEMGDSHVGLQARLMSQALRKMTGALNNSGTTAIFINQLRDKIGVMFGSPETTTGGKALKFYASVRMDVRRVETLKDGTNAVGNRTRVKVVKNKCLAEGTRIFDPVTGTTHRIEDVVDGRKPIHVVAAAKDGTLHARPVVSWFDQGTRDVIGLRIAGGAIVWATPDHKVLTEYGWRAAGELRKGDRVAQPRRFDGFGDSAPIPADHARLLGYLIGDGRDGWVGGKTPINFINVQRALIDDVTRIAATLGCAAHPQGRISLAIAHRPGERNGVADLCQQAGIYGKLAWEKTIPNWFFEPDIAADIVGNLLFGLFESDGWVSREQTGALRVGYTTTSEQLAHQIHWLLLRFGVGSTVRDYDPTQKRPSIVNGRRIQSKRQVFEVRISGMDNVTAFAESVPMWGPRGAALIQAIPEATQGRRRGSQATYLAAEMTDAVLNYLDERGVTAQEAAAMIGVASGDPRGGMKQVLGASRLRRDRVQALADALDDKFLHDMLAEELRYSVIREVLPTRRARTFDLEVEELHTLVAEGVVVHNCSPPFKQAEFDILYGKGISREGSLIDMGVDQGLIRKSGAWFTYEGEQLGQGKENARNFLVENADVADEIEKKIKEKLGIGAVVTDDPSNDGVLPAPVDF

Hexokinase HKDC1 [4] = molecular target: T1, Hexokinase HKDC1; assay: inhibition of HKDC1 glucose phosphorylation – biochemical, W721R variant, dose response (AID 504729); format: functional
Hexokinase-1 = molecular target: T4, Hexokinase-1 (Homo sapiens, UniProt P19367); assay: hexokinase 1 activity inhibitors, potency – biochemical, set 2, resazurin fluorescence coupled readout, selectivity assay for HKDC1 inhibitor project, SAR follow-up (AID 588356); format: functional
T4 sequence (P19367 whole entry): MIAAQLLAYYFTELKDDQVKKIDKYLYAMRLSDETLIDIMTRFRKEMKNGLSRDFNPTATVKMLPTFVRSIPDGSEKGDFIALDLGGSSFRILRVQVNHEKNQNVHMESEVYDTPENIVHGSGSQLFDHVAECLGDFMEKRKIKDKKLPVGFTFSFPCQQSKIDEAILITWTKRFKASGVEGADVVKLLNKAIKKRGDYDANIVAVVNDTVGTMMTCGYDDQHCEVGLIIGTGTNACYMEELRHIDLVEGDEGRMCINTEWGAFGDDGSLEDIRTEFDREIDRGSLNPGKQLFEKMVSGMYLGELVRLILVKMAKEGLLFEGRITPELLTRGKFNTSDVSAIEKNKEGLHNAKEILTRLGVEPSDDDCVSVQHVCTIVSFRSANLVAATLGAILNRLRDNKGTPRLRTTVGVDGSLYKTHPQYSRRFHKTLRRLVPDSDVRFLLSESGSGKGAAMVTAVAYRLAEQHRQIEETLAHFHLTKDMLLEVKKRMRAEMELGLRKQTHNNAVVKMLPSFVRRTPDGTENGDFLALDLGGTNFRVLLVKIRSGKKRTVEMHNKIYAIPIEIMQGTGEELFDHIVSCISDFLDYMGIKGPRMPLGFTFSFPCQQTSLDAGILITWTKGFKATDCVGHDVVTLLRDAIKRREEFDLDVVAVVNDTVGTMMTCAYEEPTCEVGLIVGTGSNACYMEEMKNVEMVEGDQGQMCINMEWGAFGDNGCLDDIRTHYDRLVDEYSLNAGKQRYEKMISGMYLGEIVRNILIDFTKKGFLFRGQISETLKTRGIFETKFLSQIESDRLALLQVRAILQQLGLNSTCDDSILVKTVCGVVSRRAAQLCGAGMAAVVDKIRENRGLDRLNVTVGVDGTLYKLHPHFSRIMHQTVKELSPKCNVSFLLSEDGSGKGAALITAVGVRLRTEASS

[5] = molecular target: T5, Microphthalmia-associated transcription factor (Homo sapiens, UniProt O75030); assay: reducers of TRPM1 reporter luminescence, concentration series – cell-based, SK-MEL-5, cherry-picked, set 3, MITF inhibitor project, dose response (AID 493073); format: functional;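 further: SK-MEL-5 melanoma cells with luciferase driven by the MITF target TRPM1 promoter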
T5 sequence (O75030 whole entry): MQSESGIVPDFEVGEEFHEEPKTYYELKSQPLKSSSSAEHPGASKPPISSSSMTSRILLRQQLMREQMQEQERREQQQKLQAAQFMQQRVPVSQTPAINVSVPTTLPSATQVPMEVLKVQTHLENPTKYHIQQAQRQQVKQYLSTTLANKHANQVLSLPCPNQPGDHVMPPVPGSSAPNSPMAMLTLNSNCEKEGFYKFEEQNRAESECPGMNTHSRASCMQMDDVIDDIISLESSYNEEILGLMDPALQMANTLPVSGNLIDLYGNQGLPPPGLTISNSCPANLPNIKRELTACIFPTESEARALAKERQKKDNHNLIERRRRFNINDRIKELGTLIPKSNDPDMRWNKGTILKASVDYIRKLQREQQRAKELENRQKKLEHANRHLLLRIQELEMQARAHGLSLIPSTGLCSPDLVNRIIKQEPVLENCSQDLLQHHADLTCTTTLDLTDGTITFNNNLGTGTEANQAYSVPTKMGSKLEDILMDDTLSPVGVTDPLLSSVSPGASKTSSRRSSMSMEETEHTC

[6] = viability of PTEN-deleted HCT116 cells – cell-based, HCT116 PTEN knockout, dose response (AID 1047); format: functional;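 further: HCT116 colon tumor cells with PTEN knocked out; cells exposed to compound for 60 hours before readout; potency for loss of cell viability measured by luminescence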
[7] = viability of HCT116 lacking mutant beta-catenin – cell-based, human colon tumor, dose response (AID 1045); format: functional;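 further: HCT116 colon tumor cells with beta catenin knocked out; cells exposed to compound for 60 hours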
A-375 = assay: proliferation inhibition in MITF-low A375 cells – cell-based, cherry-pick samples, set 2, counter-screen for MITF modulator project, dose response (AID 540335); format: functional; settings: Homo sapiens
INS1 = assay: INS-1E survival protection against cytokine death – cell-based, luminescence, retest, dose response (AID 449756); format: functional; settings: Rattus norvegicus;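 further: cell death triggered by IL-1 beta plus TNF-alpha plus IFN-gamma mixture; protective hits raise ATP signal compared with cytokine alone wells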
[8] = microbe, parasite or virus in culture; format: functional; settings: Mycobacterium tuberculosis
[9] = molecular target: ATP-dependent molecular chaperone HSP82 (Candida albicans (strain WO-1) (Yeast), UniProt C4YTQ8); assay: steroid-induced GRE reporter decrease in yeast – S. cerevisiae, luminescence, Hsp90 inhibitor project, dose response (AID 2400); format: functional, cell-based;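 further: beta-galactosidase luminescence from glucocorticoid response element reporter as proxy for Hsp90 function; inhibitor potency where signal loss means Hsp90 inhibition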
Chain of ATP-dependent molecular chaperone HSP82 (C4YTQ8 whole entry): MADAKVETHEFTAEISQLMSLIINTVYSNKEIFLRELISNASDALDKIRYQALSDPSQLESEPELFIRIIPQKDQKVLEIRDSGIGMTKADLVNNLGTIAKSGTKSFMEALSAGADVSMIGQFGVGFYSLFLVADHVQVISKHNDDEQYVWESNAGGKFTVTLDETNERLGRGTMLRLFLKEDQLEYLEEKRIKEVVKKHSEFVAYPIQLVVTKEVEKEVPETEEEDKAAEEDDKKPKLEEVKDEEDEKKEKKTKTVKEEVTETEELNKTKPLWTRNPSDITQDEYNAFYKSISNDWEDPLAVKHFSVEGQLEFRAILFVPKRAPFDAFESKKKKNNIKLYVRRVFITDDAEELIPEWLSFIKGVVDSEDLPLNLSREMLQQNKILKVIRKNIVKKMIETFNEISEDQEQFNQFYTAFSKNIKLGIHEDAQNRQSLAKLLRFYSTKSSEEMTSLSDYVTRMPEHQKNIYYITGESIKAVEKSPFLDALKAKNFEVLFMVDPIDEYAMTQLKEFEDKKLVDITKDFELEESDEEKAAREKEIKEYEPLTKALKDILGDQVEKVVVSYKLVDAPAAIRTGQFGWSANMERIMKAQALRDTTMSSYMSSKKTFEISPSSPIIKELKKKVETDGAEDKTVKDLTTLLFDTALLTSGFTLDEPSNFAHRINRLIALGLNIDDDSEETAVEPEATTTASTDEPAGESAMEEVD

[10] = NIH-3T3 fibroblast cytotoxicity, dose response, cytotoxicity control, cell-based, fluorescence, Alamar Blue, secondary assay (AID 2327); format: functional;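 further: NIH-3T3 mouse fibroblasts cultured with fluconazole at 8 µg/mL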
[11] = fluconazole-exposed Candida albicans growth modulators – fluorescence, retest, confirmation (AID 2467); format: functional, cell-based
[12] = Luminescence-based cell-based high throughput dose response assay to identify activators of the DAF-12 from the parasite S. stercoralis (ssDAF-12).; format: functional
[13] = molecular target: T6, Oxysterols receptor LXR-beta (Homo sapiens, UniProt P55055); format: functional, cell-based;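 further: Cell-based luminescence dose-response assay of agonist activity at LXR, run as a confirmatory counterscreen to a daf-12 agonist screen; HEK293 cells with Gal4-LXR fusion and GAL4-driven luciferase reporter; agonist potency from rising luciferase signal of a Gal4-LXR reporter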
T6 sequence (P55055 whole entry): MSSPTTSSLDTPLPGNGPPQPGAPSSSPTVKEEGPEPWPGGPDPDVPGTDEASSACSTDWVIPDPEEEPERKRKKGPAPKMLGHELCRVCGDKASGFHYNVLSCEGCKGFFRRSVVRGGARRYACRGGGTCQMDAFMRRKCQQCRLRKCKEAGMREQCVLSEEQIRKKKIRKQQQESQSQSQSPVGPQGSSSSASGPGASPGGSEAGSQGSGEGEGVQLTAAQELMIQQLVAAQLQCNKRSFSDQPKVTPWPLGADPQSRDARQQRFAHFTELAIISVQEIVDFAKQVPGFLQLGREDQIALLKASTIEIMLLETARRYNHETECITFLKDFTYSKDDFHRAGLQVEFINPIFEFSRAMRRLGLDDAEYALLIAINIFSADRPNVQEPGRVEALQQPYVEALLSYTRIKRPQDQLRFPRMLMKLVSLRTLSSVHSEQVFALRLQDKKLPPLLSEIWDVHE

[14] = molecular target: Serine/threonine-protein phosphatase (Candida dubliniensis (strain CD36 / CBS 7987 / NCPF 3949 / NRRLY-17841) (Yeast), UniProt B9W6M3); assay: blockers of CaCl2-induced CDRE-lacZ signaling – S. cerevisiae, luminescence, secondary, dose response (AID 2388); format: functional, cell-based;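 further: yeast reporter cells carrying a calcineurin-responsive lacZ construct stimulated with calcium chloride; luminescent beta-galactosidase reporter signal in whole cells rather than isolated phosphatase activity; potency for inhibition where a drop in reporter signal means calcineurin blockade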
Chain of Serine/threonine-protein phosphatase (B9W6M3 whole entry): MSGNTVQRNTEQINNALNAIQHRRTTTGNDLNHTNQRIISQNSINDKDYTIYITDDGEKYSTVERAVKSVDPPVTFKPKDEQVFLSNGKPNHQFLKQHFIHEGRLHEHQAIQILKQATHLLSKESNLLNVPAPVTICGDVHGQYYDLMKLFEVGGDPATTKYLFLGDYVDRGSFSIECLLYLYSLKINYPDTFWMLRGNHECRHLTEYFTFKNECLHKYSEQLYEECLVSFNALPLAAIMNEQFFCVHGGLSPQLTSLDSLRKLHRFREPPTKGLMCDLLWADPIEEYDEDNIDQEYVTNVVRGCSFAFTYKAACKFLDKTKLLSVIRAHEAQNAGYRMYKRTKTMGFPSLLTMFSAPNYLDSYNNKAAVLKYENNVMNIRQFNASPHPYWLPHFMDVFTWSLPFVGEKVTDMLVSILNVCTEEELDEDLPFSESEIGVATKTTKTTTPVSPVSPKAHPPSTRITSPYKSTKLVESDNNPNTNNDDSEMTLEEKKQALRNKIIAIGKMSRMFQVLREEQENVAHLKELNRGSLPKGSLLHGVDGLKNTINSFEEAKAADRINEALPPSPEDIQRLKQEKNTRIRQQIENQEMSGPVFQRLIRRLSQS

[15] = molecular target: Nuclear receptor subfamily 0 group B member 1 (Homo sapiens, UniProt P51843); assay: Luminescence-based cell-based high throughput dose response assay for inhibitors of the orphan nuclear receptor subfamily 0, group B, member 1 (DAX1; NR0B1). [Related pubchem assays (depositor defined):AID504766, AID504790]; format: functional
Chain of Nuclear receptor subfamily 0 group B member 1 (P51843 whole entry): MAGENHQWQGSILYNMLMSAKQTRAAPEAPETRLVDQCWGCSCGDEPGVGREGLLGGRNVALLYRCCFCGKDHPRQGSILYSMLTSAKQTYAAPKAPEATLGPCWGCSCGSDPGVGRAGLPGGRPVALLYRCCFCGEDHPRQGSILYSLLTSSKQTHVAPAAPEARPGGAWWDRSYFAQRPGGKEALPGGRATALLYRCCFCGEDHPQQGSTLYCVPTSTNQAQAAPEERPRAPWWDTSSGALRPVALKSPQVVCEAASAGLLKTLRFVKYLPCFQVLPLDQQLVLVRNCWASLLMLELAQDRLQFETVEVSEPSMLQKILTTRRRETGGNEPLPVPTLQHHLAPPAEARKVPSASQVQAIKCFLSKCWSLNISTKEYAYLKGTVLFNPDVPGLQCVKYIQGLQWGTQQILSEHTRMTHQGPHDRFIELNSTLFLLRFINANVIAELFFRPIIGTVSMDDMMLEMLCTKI

HEK293 = assay: cells; format: functional, cell-based; settings: Homo sapiens

CCOc1ccc2c(c1)C(NC(C)=O)C(=O)N2CCN1CCOCC1 (stereo unspecified)
IC50 (Hexokinase HKDC1 [1]): 8.44 µM (active) | AC50 [2]: 27.8 µM (active) | AC50 [3]: 27.3 µM (active) | EC50 (Protein RecA): 12.6 µM (active) | IC50 (Hexokinase HKDC1 [4]): 6.63 µM (active) | IC50 (Hexokinase-1): > 80 µM (inactive)

CC1CCC(C(C)C)C(OC(=O)Cn2c(-c3ccc(F)cc3)[n+](C)c3ccccc32)C1 (stereo unspecified)
AC50 [5]: 5.57 µM (active) | EC50 [6]: 4.98 µM (active) | EC50 [7]: 4.18 µM (active) | AC50 (A-375): 47.2 µM (active) | AC50 (INS1): 3.69 µM (active) | CC50 [8]: 40 µM (active)

CN1/C(=C/C(=O)c2cccs2)Sc2ccccc21
EC50 [9]: > 150 µM (inactive) | EC50 (cells): > 67.5 µM (inactive) | EC50 [10]: 14.7 µM (active) | EC50 [11]: 2.02 µM (active) | IC50 [12]: > 67.5 µM (inactive) | EC50 [13]: > 67.5 µM (inactive) | EC50 [14]: > 180 µM (inactive)

O=C(c1ccc(Br)cc1)c1coc2ccc(O)cc12
IC50 [15]: > 67.5 µM (inactive) | IC50 (HEK293): > 67.5 µM (inactive)
